These results are taken from ChEMBL document CHEMBL1649453, “Activity of temocillin against KPC-producing Klebsiella pneumoniae and Escherichia coli” (Antimicrob Agents Chemother, 2009).

Series [1] concerns Escherichia coli. Briefly: Antimicrobial activity against Escherichia coli DH10B by agar dilution method. The series is classed as functional. The conditions noted are these: K-12 DH10B.
The test system of series [2] is Escherichia coli. The series can be described thus: Antimicrobial activity against Escherichia coli clinical isolates expressing beta-lactamase KPC gene by agar dilution method. It is filed as functional. Background: Agar dilution tests growth on a series of plates holding different concentrations.
The next series has as its system Klebsiella pneumoniae. Briefly: Antimicrobial activity against Klebsiella pneumoniae expressing beta-lactamase KPC gene by agar dilution method. It is filed as functional.
Series [3] is described as follows: Protein binding in human serum at 1 gram, iv. The series is classed as ADME, organism-based. The conditions noted are these: read-out: PB (converted).
The test system of series [4] is Escherichia coli. The series can be described thus: Antimicrobial activity against Escherichia coli DH10B harboring pBCSK plasmid expressing beta-lactamase KPC gene by agar dilution method. It is filed as functional. The conditions noted are these: K-12 DH10B.
Series [5] can be described thus: Drug level in human urine at 500 mg, im bid for 3 days. It is filed as ADME, organism-based. To be noted: read-out: Drug uptake.
The nature of series [6]: Cmax in human serum at 1 gram, iv. It is filed as ADME, organism-based. Also on record: route intravenous.
Series [7] can be described thus: Half life in human serum at 1 gram, iv. It is filed as ADME, organism-based.

≈ marks a conversion by molar mass, not a printed value.

Take `CO[C@@]1(NC(=O)C(C(=O)O)c2ccsc2)C(=O)N2[C@@H](C(=O)O)C(C)(C)S[C@@H]21` (some centres undefined) [TEMOCILLIN]: the MIC against Escherichia coli [1], in the series with Escherichia coli [2] and in the series on Escherichia coli [4] was 8 µg/mL (≈ 19.3 µM) throughout. Also, in the series on Klebsiella pneumoniae, the MIC50 was found to be 32 µg/mL (≈ 77.2 µM). In addition, the MIC90 in the series on Klebsiella pneumoniae was found to be 32 µg/mL (≈ 77.2 µM). Besides, the fraction unbound in series [3] is 0.15. Also, the concentration at 72 h in series [5] is 500 µg/mL. For the same molecule, the peak level in series [6] (Cmax) was 160 µg/mL. The molecule also gave a half-life in series [7] of 4 h.

The term MIC denotes the lowest concentration found to suppress growth. As usually defined, the MIC50 is an inhibitory concentration at the 50% level, which refers to growth in some studies and to a panel of isolates in others. As usually defined, the MIC90 is the lowest concentration that inhibits either 90% of growth or 90% of the strains tested, depending on the study. A lower MIC90 goes with higher susceptibility. A word on the Cmax: it is the highest concentration seen after dosing. As a reminder, the half-life is the time needed for the level to fall by half in the phase considered.
